Reference: patent publication US5086066A, “Method of providing anxiolytic and antipsychotic treatment with substituted benzamides” (priority 1988, dated 1992)

Legend:
mice = test: two compartment (dark and light) box test, anxiolytic activity; type: in vivo; settings: for % time in black compartment / Black compartment rearings/5 min / Black compartment transits/5 min / Delay white → black / White compartment rearings/5 min / White compartment transits/5 min: 40 min after administration, S.E.M. <12.6%, n = 5
Procedure: The two compartment box test was conducted in mice to evaluate anxiolytic activity. This test is based on a natural aversion of mice to light. The apparatus used is a box containing two compartments, one of which is dark (labeled "black compartment" in the Table 1) and the other illuminated (labeled "white compartment" in Table 1). The apparatus is designed to allow the animal to choose between staying in either of the two compartments. Under normal conditions, the mice avoid light and usually remain in the dark compartment. Under the influence of an anxiolytic agent, however, exploration of the illustrated compartment predominates. The test consists of placing each mouse in the center of the illuminated compartment and observing the animal's behavior by video system for 5 minutes. The number of exploratory rearings and the number of displacements (the crossing of lines traced on the floor of each compartment constitute "passages") are then recorded for each compartment. An anxiolytic effect induced by a drug, such as diazepam, is characterized by an increase in the number of exploratory rearings and in the number of passages into the illuminated compartment. The compounds of the invention were injected subcutaneously at variable doses, each dose being administered to a group of 5 mice.

[1] = acute toxicity, median lethal dose (LD50) intravenously; settings: mouse, in vivo, iv
Description: The compounds of the invention were also subjected to a study of acute toxicity when injected intravenously in male mice and female mice, which enabled the median lethal doses (LD50) to be determined.

rats = test: hyperactivity induced by injection of amphetamine into the nucleus accumbens (motor activity), antipsychotic activity; type: in vivo
Procedure: Tests were conducted to measure the antipsychotic activity of the compounds of the invention. In particular, the hyperactivity induced in rats by the perfusion of amphetamine into the nucleus accumbens was evaluated. This test consists in determining the effect of the compounds of the invention on hyperactivity produced in rats by the injection of amphetamine into the nucleus accumbens. Hyperactivity was induced by injecting 20 μg of amphetamine bilaterally into the nucleus accumbens. The compounds of the invention were administered subcutaneously at doses of 1 mg/kg and 10 mg/kg, 40 minutes before the injection of amphetamine. For each dose of test product, a group of 5 animals was used. A group treated only with amphetamine and a reference group which received only an inert vehicle comprised 10 animals.
Immediately after the injection of amphetamine, the rats were placed in individual cages equipped with photoelectric cells. Motor activity, characterized by the number of shifts from place to place in these cages, was determined by the number of interruptions of a light beam striking these cells. The measurements were made during the 80 minutes following the injection of amphetamine. The results, expressed as the number of shifts from place to place per 10-minute period, are collated in Table 2.

## CCN(CC)CCNC(=O)c1cc(Cl)c(NC2=NC(C)CN2)cc1OC (stereo not drawn) [Compound 1, N-[2-(diethylamino)ethyl]-2-methoxy-4-[(4,5-dihydro-4-methyl-1H-imidazol-2-yl)amino]-5-chlorobenzamide]
mice; 0.01 mg/kg s.c.
  % time in black compartment: 36%
  Black compartment rearings/5 min: 16 rearings/5 min
  Black compartment transits/5 min: 37 transits/5 min
  Delay white → black: 19 s
  White compartment rearings/5 min: 57 rearings/5 min
  White compartment transits/5 min: 77 transits/5 min
mice; 0.1 mg/kg s.c.
  % time in black compartment: 27%
  Black compartment rearings/5 min: 14 rearings/5 min
  Black compartment transits/5 min: 23 transits/5 min
  Delay white → black: 22 s
  White compartment rearings/5 min: 73 rearings/5 min
  White compartment transits/5 min: 79 transits/5 min
mice; Mus musculus, sc, 40 min, subcutaneous, mice, read-out: dose at and above which anxiolytic activity is manifested
  minimal effective dose: ≥ 0.01 mg/kg
[1]; female mice
  LD50: 24 mg/kg
[1]; male mice
  LD50: 19.5 mg/kg
rats; 1 mg/kg s.c. 40 min before amphetamine 20 μg, time 10 min
  Motor activity: 49 ± 9 shifts from place to place/10 minutes
rats; 1 mg/kg s.c. 40 min before amphetamine 20 μg, time 20 min
  Motor activity: 35 ± 3 shifts from place to place/10 minutes
rats; 1 mg/kg s.c. 40 min before amphetamine 20 μg, time 30 min
  Motor activity: 45 ± 8 shifts from place to place/10 minutes
rats; 1 mg/kg s.c. 40 min before amphetamine 20 μg, time 40 min
  Motor activity: 40 ± 8 shifts from place to place/10 minutes
rats; 1 mg/kg s.c. 40 min before amphetamine 20 μg, time 50 min
  Motor activity: 11 ± 3 shifts from place to place/10 minutes
rats; 1 mg/kg s.c. 40 min before amphetamine 20 μg, time 60 min
  Motor activity: 12 ± 2 shifts from place to place/10 minutes
rats; 1 mg/kg s.c. 40 min before amphetamine 20 μg, time 70 min
  Motor activity: 8 ± 1 shifts from place to place/10 minutes
rats; 10 mg/kg s.c. 40 min before amphetamine 20 μg, time 10 min
  Motor activity: 27 ± 4 shifts from place to place/10 minutes
rats; 10 mg/kg s.c. 40 min before amphetamine 20 μg, time 20 min
  Motor activity: 27 ± 6 shifts from place to place/10 minutes
rats; 10 mg/kg s.c. 40 min before amphetamine 20 μg, time 30 min
  Motor activity: 13 ± 3 shifts from place to place/10 minutes
rats; 10 mg/kg s.c. 40 min before amphetamine 20 μg, time 40 min
  Motor activity: 11 ± 2 shifts from place to place/10 minutes
rats; 10 mg/kg s.c. 40 min before amphetamine 20 μg, time 50 min
  Motor activity: 8 ± 2 shifts from place to place/10 minutes
